Assay results from ChEMBL document CHEMBL5346923, “Novel pyridinium cationic pleuromutilin analogues overcoming bacterial multidrug resistance” (Eur J Med Chem, 2023).

Tests used:
Type in all cases: functional
Enterococcus = assay: Antibacterial activity against vancomycin-resistant Enterococcus ATCC 700221 assessed as inhibition of bacterial growth measured after 24 hrs by MH broth based assay
Bacillus subtilis = assay: Antibacterial activity against Bacillus subtilis ATCC 6633 assessed as inhibition of bacterial growth measured after 24 hrs by MH broth based assay
Staphylococcus aureus [1] = assay: Antibacterial activity against Staphylococcus aureus ATCC 29213 assessed as inhibition of bacterial growth measured after 24 hrs by MH broth based assay
Staphylococcus aureus [2] = assay: Antibacterial activity against methicillin-resistant Staphylococcus aureus ATCC 43300 assessed as inhibition of bacterial growth measured after 24 hrs by MH broth based assay
Streptococcus pneumoniae = assay: Antibacterial activity against Streptococcus pneumoniae ATCC 49619 assessed as inhibition of bacterial growth measured after 24 hrs by MH broth based assay
[3] = tested on: Staphylococcus epidermidis; assay: Antibacterial activity against methicillin-resistant Staphylococcus epidermidis ATCC 51625 assessed as inhibition of bacterial growth measured after 24 hrs by MH broth based assay
Klebsiella pneumoniae = assay: Antibacterial activity against Klebsiella pneumonia CMCC (B) 46117 assessed as inhibition of bacterial growth measured after 24 hrs by MH broth based assay
Escherichia coli [4] = assay: Antibacterial activity against Escherichia coli ATCC 25922 assessed as inhibition of bacterial growth measured after 24 hrs by MH broth based assay
Proteus = assay: Antibacterial activity against Proteus CMCC (B) 49027 assessed as inhibition of bacterial growth measured after 24 hrs by MH broth based assay
Escherichia coli [5] = assay: Antibacterial activity against Escherichia coli MG1655 assessed as inhibition of bacterial growth measured after 24 hrs by MH broth based assay
Escherichia coli [6] = assay: Antibacterial activity against Escherichia coli MG1655 harbouring acrB gene assessed as inhibition of bacterial growth measured after 24 hrs by MH broth based assay

Structure (SMILES) | MIC (Enterococcus) [µg/mL] | MIC (Bacillus subtilis) [µg/mL] | MIC (Staphylococcus aureus [1]) [µg/mL] | MIC (Staphylococcus aureus [2]) [µg/mL] | MIC (Streptococcus pneumoniae) [µg/mL] | MIC [3] [µg/mL] | MIC (Klebsiella pneumoniae) [µg/mL] | MIC (Escherichia coli [4]) [µg/mL] | MIC (Proteus) [µg/mL] | MIC (Escherichia coli [5]) [µg/mL] | MIC (Escherichia coli [6]) [µg/mL]
C=C[C@]1(C)C[C@@H](OC(=O)CSc2cc[n+](COC)cc2)[C@]2(C)[C@H](C)CC[C@]3(CCC(=O)[C@H]32)[C@@H](C)[C@@H]1O.[I-] | 32 | 64 | 0.25 | 0.25 | 0.25 | 0.5 | 64 | 64 | > 64 | 64 | 1
C=CCC[n+]1ccc(SCC(=O)O[C@@H]2C[C@@](C)(C=C)[C@@H](O)[C@H](C)[C@]34CCC(=O)[C@H]3[C@@]2(C)[C@H](C)CC4)cc1.[I-] | 16 | 64 | 0.25 | 0.25 | 0.125 | 0.25 | 16 | 64 | 64 | 32 | 0.25
C=C[C@]1(C)C[C@@H](OC(=O)CSc2cc[n+](CCCC)cc2)[C@]2(C)[C@H](C)CC[C@]3(CCC(=O)[C@H]32)[C@@H](C)[C@@H]1O.[I-] | 16 | 64 | 0.25 | 0.25 | < 0.031 | 0.063 | 16 | 64 | > 64 | 64 | 0.5
C=C[C@]1(C)C[C@@H](OC(=O)CSc2cc[n+](Cc3ccc(OC)cc3)cc2)[C@]2(C)[C@H](C)CC[C@]3(CCC(=O)[C@H]32)[C@@H](C)[C@@H]1O.[I-] | 4 | 16 | 0.063 | 0.125 | < 0.031 | 0.031 | 4 | 64 | > 64 | 64 | 0.5
C=C[C@]1(C)C[C@@H](OC(=O)CSc2cc[n+](CC(C)C)cc2)[C@]2(C)[C@H](C)CC[C@]3(CCC(=O)[C@H]32)[C@@H](C)[C@@H]1O.[I-] | 64 | 64 | 0.5 | 0.5 | 0.25 | 0.5 | 64 | 64 | > 64 | 64 | 2
C=C[C@]1(C)C[C@@H](OC(=O)CSc2cc[n+](CCCCC(=O)O)cc2)[C@]2(C)[C@H](C)CC[C@]3(CCC(=O)[C@H]32)[C@@H](C)[C@@H]1O.[I-] | 64 | > 64 | 8 | 16 | 2 | 4 | > 64 | > 64 | > 64 | 64 | 16
C=C[C@]1(C)C[C@@H](OC(=O)CSc2cc[n+](CCCCCCCC(=O)O)cc2)[C@]2(C)[C@H](C)CC[C@]3(CCC(=O)[C@H]32)[C@@H](C)[C@@H]1O.[I-] | 64 | > 64 | 8 | 8 | 2 | 4 | > 64 | > 64 | > 64 | > 64 | 32
C=C[C@]1(C)C[C@@H](OC(=O)CSc2cc[n+](CCCCCCC(=O)O)cc2)[C@]2(C)[C@H](C)CC[C@]3(CCC(=O)[C@H]32)[C@@H](C)[C@@H]1O.[I-] | 64 | 64 | 0.5 | 0.5 | 0.5 | 2 | 64 | 64 | 64 | 64 | 32
C=C[C@]1(C)C[C@@H](OC(=O)CSc2cc[n+](CCC)cc2)[C@]2(C)[C@H](C)CC[C@]3(CCC(=O)[C@H]32)[C@@H](C)[C@@H]1O.[I-] | 16 | 64 | 0.25 | 0.25 | 0.063 | 0.125 | 32 | 64 | 64 | 64 | 0.5
C=C[C@]1(C)C[C@@H](OC(=O)CSc2cc[n+](CC3CCCO3)cc2)[C@]2(C)[C@H](C)CC[C@]3(CCC(=O)[C@H]32)[C@@H](C)[C@@H]1O.[I-] (stereo partly specified) | 64 | 64 | 1 | 1 | 0.125 | 0.25 | 64 | 64 | > 64 | 64 | 2
C=C[C@]1(C)C[C@@H](OC(=O)CSc2cc[n+](CC(=O)N3CCCC3)cc2)[C@]2(C)[C@H](C)CC[C@]3(CCC(=O)[C@H]32)[C@@H](C)[C@@H]1O.[I-] | 64 | > 64 | 4 | 4 | 1 | 2 | 64 | 64 | > 64 | 64 | 4
C=C[C@]1(C)C[C@@H](OC(=O)CSc2cc[n+](CCCCCCCCCCCC)cc2)[C@]2(C)[C@H](C)CC[C@]3(CCC(=O)[C@H]32)[C@@H](C)[C@@H]1O.[I-] | 16 | 8 | 8 | 8 | 4 | 8 | 32 | 32 | 64 | 32 | 8
C=C[C@]1(C)C[C@@H](OC(=O)CSc2cc[n+](Cc3ccc(C)cc3)cc2)[C@]2(C)[C@H](C)CC[C@]3(CCC(=O)[C@H]32)[C@@H](C)[C@@H]1O.[I-] | 64 | > 64 | 0.5 | 0.5 | < 0.031 | 0.063 | 32 | 64 | > 64 | 64 | 2
C=C[C@]1(C)C[C@@H](OC(=O)CSc2cc[n+](CC(=O)N3CCS(=O)(=O)CC3)cc2)[C@]2(C)[C@H](C)CC[C@]3(CCC(=O)[C@H]32)[C@@H](C)[C@@H]1O.[I-] | 64 | > 64 | 8 | 8 | 2 | 4 | > 64 | > 64 | > 64 | 32 | 16
C=C[C@]1(C)C[C@@H](OC(=O)CSc2cc[n+](CC(=O)O)cc2)[C@]2(C)[C@H](C)CC[C@]3(CCC(=O)[C@H]32)[C@@H](C)[C@@H]1O.[I-] | 64 | > 64 | 8 | 4 | 2 | 2 | > 64 | > 64 | > 64 | > 64 | 32
C=C[C@]1(C)C[C@@H](OC(=O)CSc2cc[n+](CCCCCCCCCC)cc2)[C@]2(C)[C@H](C)CC[C@]3(CCC(=O)[C@H]32)[C@@H](C)[C@@H]1O.[I-] | 4 | 2 | 0.25 | 1 | 0.125 | 0.5 | 2 | 16 | 64 | 16 | 1
